The results in this text go back to a melting point compilation (Tetko et al.; mined from patent text by program, amines drawn as free bases though some values may be those of a salt).

Regarding `CC(NC(=O)c1ccc(I)cc1)C(O)c1ccccc1` (stereo not given), the melting point – broadly, the temperature of the solid-liquid transition – was in the range of 209 to 210 °C.

Molecule `COc1cccc(CNC(=O)[C@@H]2CCCN(c3cccc4c3C(=O)N(Cc3ccncc3)C4=O)C2)c1OC` displayed a melting point of 199 to 200 °C.

The molecule `Fc1ccc(CCCCN2CCN(c3ncc(F)cn3)CC2)cc1` showed a melting point of 59 to 61 °C.

In the case of `COc1cc2c(Nc3ccc(Sc4nccn4C)c(Cl)c3)c(C#N)cnc2cc1/C=C/CCO`, the melting point lay within 273 to 278 °C.

As for `N#Cc1cc2cc(Br)ccc2[nH]c1=O`, the melting point was 308 to 311 °C.

In turn, `O=C(Cn1c(=O)c(=O)[nH]c2cc([N+](=O)[O-])c(-n3cccc3)cc21)Nc1ccccc1` returned a melting point greater than 300 °C.

`O=C(Nc1cccnc1)N1CCN(c2nccc(-c3ccccc3F)n2)CC1` gave a melting point of 200 to 201 °C.

Molecule `Cc1cccc(C)c1OCC(C)NCC(O)c1cc(C(N)=O)cs1` (stereo not given) displayed a melting point of 125 to 137 °C.

Consider `CNC(=O)NCCSCc1csc(CN(C)C)n1`, for which the melting point lay within 56 to 59 °C.

Take `CNCCOC(=O)[C@@H](C)c1ccc2cc(OC)ccc2c1`: the melting point was 64 to 68 °C.

As to `COCCOc1c(S(C)(=O)=O)ccc(C(=O)O)c1C`, the melting point lay in the range of 104 to 106 °C.

Molecule `CC12CCC(=O)CC1CCC1C2CCC2(C)C(O)C(N=[N+]=[N-])CC12` (stereo not given) showed a melting point of 165 to 167 °C.

With `O=S(=O)(c1ccccc1)N1CCC(Nc2nc(OCC(F)(F)F)nc(-n3ccnc3)n2)CC1`, the melting point is 201 to 203 °C.

`CCc1nccn1CCCOCc1cccc(SC)c1NC(=O)CC1c2ccccc2Oc2ccccc21`: the melting point was in the range of 159 to 160 °C.

Molecule `CC(C)CCC(=O)N1CCN(C(=O)OC(C)(C)C)CC1` displayed a melting point of 88 to 90.2 °C.

The molecule `CCCCc1nc(CCCC)n(Cc2ccc(-c3ccccc3C(=O)O)cc2)n1` yielded a melting point of 134 to 135 °C.

As for `CCCSc1nc(-c2ccc(OC)cc2)c(-c2ccc(OC)cc2)s1`, the melting point fell in the range of 58 to 60 °C.

Molecule `COc1cc(Nc2c(C#N)cnc3cc4cc(OC)c(OCCN5CCN(C)CC5)cc4cc23)c(Cl)cc1F` displayed a melting point of 170 to 173 °C.

Take `CC(C)(C#N)c1cc(C(Cl)c2cncnc2)cc(C(C)(C)C#N)c1` (stereo not given): the melting point fell in the range of 118 to 121 °C.

Consider `Cc1cc(NC(=O)c2ccccc2O)cc(C)c1O`, for which the melting point lay in the range of 142 to 145 °C.

With `Cc1ncn(C)c1[N+](=O)[O-]`, the melting point turned out to be 45 °C.

`CCCCc1c(Cl)nc(N)nc1-c1cc2ccccc2o1` came in with a melting point of 195 to 196 °C.

`COc1ccc2c(CBr)c(F)ccc2c1C(F)(F)F`: the melting point lay within 97 to 100 °C.

Molecule `CCc1ccccc1NC=C1C(=O)N(c2cccc(NC(=O)OC)c2)N=C1C` displayed a melting point of 229 °C.

Molecule `CCOC(=O)C(Br)=NNc1ccccc1` gave a melting point of 82 to 83 °C.

Molecule `CC(=Cc1ccc(N(C)C)cc1Br)[N+](=O)[O-]` registered a melting point of 102 to 103 °C.

As for `CC(O)C(=O)NCCNC(=O)C(C)O` (stereo not given), the melting point was determined as 188 °C.

For `Cn1c(C(F)(F)F)cc(=O)n(-c2ccc3snc(CS(=O)(=O)CC(=O)O)c3c2)c1=O`, the melting point amounted to 215 °C.

Take `Cc1cccc(NC(=O)NCC(=O)N(CC(=O)N2CCCCCC2)c2ccccc2)c1`: the melting point is 245 °C.

`COc1cc(OC)c(-c2cc3ccccc3s2)cc1/C=C/C(=O)c1ccc(C(=O)NC(C)=O)cc1` came in with a melting point of 228 to 229 °C.

`COc1cc2c(cc1OCc1ccccc1)CCN(Cc1cc(OC)c(OC)c(OC)c1)C2` showed a melting point of 144 to 145 °C.

`OCCC1(c2ccc(Cl)c(Cl)c2)CCNC1` (stereo not given) yielded a melting point of 91 to 94 °C.

`O=C1Nc2ncccc2N2CCNCC12` (stereo not given) showed a melting point of 315 to 319 °C.

Molecule `CC(C)c1ccccc1N1/C(=N\N=C/c2ccc(-c3ncn(-c4ccc(OC(F)(F)F)cc4)n3)cc2)SCC1(O)C(F)(F)F` (stereo not given) registered a melting point of 185 to 187 °C.

On to `Cn1c(C(=O)NC2CCCCC2)nc(-c2ccc(Cl)cc2Cl)c1-c1ccc(Cl)cc1`, for which the melting point was found to be 165 °C.
